According to patent US10626095B2, “Cyanotriazole compounds” (OTSUKA PHARMACEUTICAL CO., LTD., priority 2013, dated 2020):

Tested on: NaCT-CHO (CHO cells stably expressing human NaCT)
Assay: Assay of the citric acid cycle activation ([1,5-14C]-citric acid, diffusion of [14C]-CO2)
Assay type: cell-based
Settings: 1 hour incubation at 37° C. with [1,5-14C]-citric acid
Source text: Assay of the Citric Acid Cycle Activation
(1) Construction of the Human NaCT Expression Vector pME-NaCT
The human NaCT (also called SLC13A5 or NAC2; GenBank accession No. NM_177550) cDNA was inserted into the EcoRI-NotI site of the mammalian expression vector pME18S (GenBank accession No. AB009864) and purified by Qiagen Plasmid Maxi Kit (Qiagen).
(2) Establishment of NaCT Stably Expressed CHO Cells
The pME-NaCT vector and the pcDNA™3.1 vector containing the neomycin resistance gene (Life Technologies) were co-transfected into CHO-K1 cells (ATCC) by Lipofectaimine 2000 reagent (Life Technologies). The next day the cells were subcultured in Nutrient Mixture F-12 Ham (Sigma-Aldrich) with 10% FBS (Biological Industries), and Geneticin (Life Technologies) was added (final concentration 350 μg/mL) in the following day. CHO cell clones stably expressing NaCT were given by neomycin resistant cell screening and limiting dilution method. Established cell lines (named NaCT-CHO) were also maintained in culture medium (Nutrient Mixture F-12 Ham) with 10% FBS and 350 μg/mL Geneticin. For control cells (named pME-CHO) preparation, the naive pME18S were also transfected instead of pME-NaCT into CHO-K1 cells.
(3) Assay of the Citric Acid Cycle Activation
NaCT-CHO and pME-CHO were plated at 20,000 cells/well into white CulturPlate™-96 (PerkinElmer) two days before the assay. Prior to assay incubation, the cultured plates were washed twice with washing buffer, 10 mM HEPES-Tris(pH7.4) containing 140 mM choline chloride, 2 mM KCl, 1 mM CaCl2, 1 mM MgCl2. The compounds to be tested were dissolved and diluted in DMSO (Wako Pure Chemical industries) to 1,000 times of a final concentration, and further diluted to two times as high as the final concentration in assay buffer, 10 mM HEPES-Tris(pH7.4) containing 140 mM NaCl, 2 mM KCl, 1 mM CaCl2, 1 mM MgCl2. The range of final concentrations was properly determined based on the test compounds activity. Each 25 μL compound solution was added to well and subsequently 25 μL radio-labeled substrate solution containing 0.4 mM (0.4 MBq/mL) [1,5-^14C]-citric acid (PerkinElmer) in the assay buffer was added. After 1 hour incubation at 37° C., the reaction mixture was discarded and washed three times with pre-chilled washing buffer and then 0.1 mL MicroScint 20 (PerkinElmer) was added to well. The plate was sealed with TopSeal-A (PerkinElmer) and the radioactivity was measured using a TopCount (PerkinElmer). Non-specific activity (NS cpm) and total radio activity (Total cpm) were determined by counting of pME-CHO plated wells and NaCT-CHO plated wells without compounds, respectively. Diffusion of [^14C]—CO2 was able to be estimated from residual radioactivity (R cpm) by an equation (Total−R)/(Total−NS)×100(%). The difference of Total and R was disappeared in the presence of 0.1 μM antimycin A. EC50 values were calculated by regression analysis using SAS Statistical Analysis System (SAS institute Japan Ltd. Release 9.1).

Row | SMILES | EC50 [nM]
1 | N#Cc1[nH]nnc1-c1cc(OCc2cc(C(F)(F)F)ccc2C(F)(F)F)cc(C(F)(F)F)c1 [Example 63, 5-[3-(2,5-bis-trifluoromethyl-benzyloxy)-5-trifluoromethyl-phenyl]-3H-[1,2,3]triazole-4-carbonitrile] | 960
2 | CC(Oc1cc(-c2nn[nH]c2C#N)cc(C(F)(F)F)c1)c1ccccc1 (stereo not shown) [Example 64, 5-[3-(1-phenyl-ethoxy)-5-trifluoromethyl-phenyl]-3H-[1,2,3]triazole-4-carbonitrile] | 240
3 | N#Cc1[nH]nnc1-c1cccc(CSCc2ccc(OC(F)(F)F)cc2)c1 [Example 65, 5-[3-(4-trifluoromethoxy-benzylsulfanylmethyl)-phenyl]-3H-[1,2,3]triazole-4-carbonitrile] | 790
4 | N#Cc1[nH]nnc1-c1cccc(CCOc2ccc(C(F)(F)F)cn2)c1 [Example 66, 5-{3-[2-(5-trifluoromethyl-pyridin-2-yloxy)-ethyl]-phenyl}-3H-[1,2,3]triazole-4-carbonitrile] | 660
5 | CC(Cc1ccccc1)Oc1cc(-c2nn[nH]c2C#N)cc(C(F)(F)F)c1 (stereo not shown) [Example 67, 5-[3-(1-methyl-2-phenyl-ethoxy)-5-trifluoromethyl-phenyl]-3H-[1,2,3]triazole-4-carbonitrile] | 490
6 | N#Cc1[nH]nnc1-c1ccc(-c2cccc(C(F)(F)F)c2)cc1 [Example 68, 5-(3′-trifluoromethyl-biphenyl-4-yl)-3H-[1,2,3]triazole-4-carbonitrile] | 460
7 | N#Cc1[nH]nnc1-c1ccc(-c2cc(C(F)(F)F)ccn2)cc1 [Example 69, 5-[4-(4-trifluoromethyl-pyridin-2-yl)-phenyl]-3H-[1,2,3]triazole-4-carbonitrile] | 530
8 | Cc1cc(-c2nn[nH]c2C#N)ccc1Cc1cccc(C(F)(F)F)c1 [Example 71, 5-[3-methyl-4-(3-trifluoromethyl-benzyl)-phenyl]-3H-[1,2,3]triazole-4-carbonitrile] | 590
9 | N#Cc1[nH]nnc1-c1ccc(Oc2cccc(C(F)(F)F)c2)c(F)c1 [Example 72, 5-[3-fluoro-4-(3-trifluoromethyl-phenoxy)-phenyl]-3H-[1,2,3]triazole-4-carbonitrile] | 300
10 | N#Cc1[nH]nnc1-c1ccc(/C=C/c2cccc(C(F)(F)F)c2)cc1F [Example 73, 5-{2-fluoro-4-[(E)-2-(3-trifluoromethyl-phenyl)-vinyl]-phenyl}-3H-[1,2,3]triazole-4-carbonitrile] | 730
11 | N#Cc1[nH]nnc1-c1nc(-c2ccc(OC(F)(F)F)cc2)cs1 [Example 74, 5-[4-(4-trifluoromethoxy-phenyl)-thiazol-2-yl]-3H-[1,2,3]triazole-4-carbonitrile] | 2910
12 | N#Cc1[nH]nnc1-c1csc(-c2ccc(F)c(Cl)c2)n1 [Example 76, 5-[2-(3-chloro-4-fluoro-phenyl)-thiazol-4-yl]-3H-[1,2,3]triazole-4-carbonitrile] | 590
13 | N#Cc1[nH]nnc1-c1csc(-c2ccc(OC(F)(F)F)cc2)n1 [Example 80, 5-[2-(4-trifluoromethoxy-phenyl)-thiazol-4-yl]-3H-[1,2,3]triazole-4-carbonitrile] | 870
14 | N#Cc1[nH]nnc1-c1csc(/C=C/c2cccc(C(F)(F)F)c2)n1 [Example 81, 5-{2-[(E)-2-(3-trifluoromethyl-phenyl)-vinyl]-thiazol-4-yl}-3H-[1,2,3]triazole-4-carbonitrile] | 990
15 | N#Cc1[nH]nnc1-c1csc(OCc2ccc(Cl)cc2)n1 [Example 82, 5-[2-(4-chloro-benzyloxy)-thiazol-4-yl]-3H-[1,2,3]triazole-4-carbonitrile] | 760
16 | CN(c1ccc(Cl)cc1)c1nc(-c2nn[nH]c2C#N)cs1 [Example 83, 5-{2-[N-(4-chloro-phenyl)-N-methyl-amino]-thiazol-4-yl}-3H-[1,2,3]triazole-4-carbonitrile] | 1080
17 | CCN(c1cccc(C(F)(F)F)c1)c1nc(-c2nn[nH]c2C#N)cs1 [Example 84, 5-{2-[N-ethyl-N-(3-trifluoromethyl-phenyl)-amino]-thiazol-4-yl}-3H-[1,2,3]triazole-4-carbonitrile] | 1500

Row | SMILES | EC50 [nM]
18 | N#Cc1[nH]nnc1-c1csc(Oc2cccc(C(F)(F)F)c2)n1 [Example 85, 5-[2-(3-trifluoromethyl-phenoxy)-thiazol-4-yl]-3H-[1,2,3]triazole-4-carbonitrile] | 690
19 | N#Cc1[nH]nnc1-c1csc(Sc2ccc(Cl)cc2)n1 [Example 86, 5-[2-(4-chloro-phenylsulfanyl)-thiazol-4-yl]-3H-[1,2,3]triazole-4-carbonitrile] | 670
20 | CCCCCCc1nc(-c2nn[nH]c2C#N)cs1 [Example 87, 5-(2-hexyl-thiazol-4-yl)-3H-[1,2,3]triazole-4-carbonitrile] | 900
21 | N#Cc1[nH]nnc1-c1csc(C23CC4CC(CC(C4)C2)C3)n1 [Example 88, 5-(2-(adamantan-1-yl)-thiazol-4-yl)-3H-[1,2,3]triazole-4-carbonitrile] | 620
22 | Cc1sc(-c2ccc(Cl)cc2)nc1-c1nn[nH]c1C#N [Example 89, 5-[2-(4-chloro-phenyl)-5-methyl-thiazol-4-yl]-3H-[1,2,3]triazole-4-carbonitrile] | 760
23 | Cc1sc(-c2cccc(C(F)(F)F)c2)nc1-c1nn[nH]c1C#N [Example 91, 5-[5-methyl-2-(3-trifluoromethyl-phenyl)-thiazol-4-yl]-3H-[1,2,3]triazole-4-carbonitrile] | 700
24 | Cc1sc(-c2ccc(C(F)(F)F)cn2)nc1-c1nn[nH]c1C#N [Example 93, 5-[5-methyl-2-(5-trifluoromethyl-pyridin-2-yl)-thiazol-4-yl]-3H-[1,2,3]triazole-4-carbonitrile] | 580
25 | Cc1sc(-c2cccc(C(F)(F)F)n2)nc1-c1nn[nH]c1C#N [Example 94, 5-[5-methyl-2-(6-trifluoromethyl-pyridin-2-yl)-thiazol-4-yl]-3H-[1,2,3]triazole-4-carbonitrile] | 790
26 | Cc1sc(-c2ccc(Cl)cn2)nc1-c1nn[nH]c1C#N [Example 95, 5-[2-(5-chloro-pyridin-2-yl)-5-methyl-thiazol-4-yl]-3H-[1,2,3]triazole-4-carbonitrile] | 740
27 | Cc1sc(Oc2ccc(OC(F)(F)F)cc2)nc1-c1nn[nH]c1C#N [Example 96, 5-[5-methyl-2-(4-trifluoromethoxy-phenoxy)-thiazol-4-yl]-3H-[1,2,3]triazole-4-carbonitrile] | 670
28 | Cc1sc(Sc2cccc(C(F)(F)F)c2)nc1-c1nn[nH]c1C#N [Example 97, 5-[5-methyl-2-(3-trifluoromethyl-phenylsulfanyl)-thiazol-4-yl]-3H-[1,2,3]triazole-4-carbonitrile] | 500
29 | CCc1sc(-c2cccc(C(F)(F)F)c2)nc1-c1nn[nH]c1C#N [Example 99, 5-[5-ethyl-2-(3-trifluoromethyl-phenyl)-thiazol-4-yl]-3H-[1,2,3]triazole-4-carbonitrile] | 540
30 | CCc1sc(-c2ccc(C(F)(F)F)nc2)nc1-c1nn[nH]c1C#N [Example 101, 5-[5-ethyl-2-(6-trifluoromethyl-pyridin-3-yl)-thiazol-4-yl]-3H-[1,2,3]triazole-4-carbonitrile] | 850
31 | CCc1sc(Oc2ccc(Cl)cc2)nc1-c1nn[nH]c1C#N [Example 102] | 360
32 | CCCc1sc(-c2ccc(Cl)cc2)nc1-c1nn[nH]c1C#N [Example 103, 5-[2-(4-chloro-phenyl)-5-propyl-thiazol-4-yl]-3H-[1,2,3]triazole-4-carbonitrile] | 230
33 | CCCc1sc(-c2cccc(C(F)(F)F)c2)nc1-c1nn[nH]c1C#N [Example 104, 5-[5-propyl-2-(3-trifluoromethyl-phenyl)-thiazol-4-yl]-3H-[1,2,3]triazole-4-carbonitrile] | 700
34 | N#Cc1[nH]nnc1-c1nc(-c2ccc(Cl)cc2)sc1C1CC1 [Example 105, 5-[2-(4-chloro-phenyl)-5-cyclopropyl-thiazol-4-yl]-3H-[1,2,3]triazole-4-carbonitrile] | 1910
